Data on twelve compounds can be found in patent publication US6706740B2, “Fungicidal heterocyclic aromatic amides and their compositions, methods of use and preparation” (Dow AgroSciences LLC, priority 1999, dated 2004).

Assay [1] concerns Phytophthora infestans (PHYTIN). The assay is described as follows: microbe, parasite or virus in culture. The class given is cell-based. Conditions: Phytophthora infestans, read-out: PHYTIN in vitro Growth Inhibition.
Assay [2] relates to Erysiphe graminis—ERYSGT. Briefly: Powdery Mildew of Wheat, in vivo whole plant, 24 Hour Protectant. Conditions: Erysiphe, read-out: ERYSGT in vivo 1 Day Protectant.
Assay [3] concerns Phytophthora infestans—PHYTIN. Briefly: whole plant or invertebrate. The class given is in vivo. The conditions noted are these: Phytophthora, in Solanum lycopersicum, 24 h, read-out: PHYTIN in vivo 1 Day Protectant.
Assay [4] relates to Septoria tritici—SEPTTR. Briefly: Leaf Blotch of Wheat, in vivo whole plant, 24 Hour Protectant. Conditions: for pest or weed control at 100 ppm: Zymoseptoria tritici, 24 h, control of fungal infection vs untreated plants, read-out: SEPTTR in vivo 1 Day Protectant.
Assay [5] relates to Puccinia recondita—PUCCRT. The assay is described as follows: Brown Rust of Wheat, in vivo whole plant, 24 Hour Protectant. The conditions noted are these: for pest or weed control at 100 ppm: Puccinia, read-out: PUCCRT in vivo 1 Day Protectant.
Assay [6] deals with Rhizoctonia solani (RHIZSO). The assay is described as follows: microbe, parasite or virus in culture. In kind it is cell-based. The conditions noted are these: Rhizoctonia solani, read-out: RHIZSO in vitro Growth Inhibition.
The subject of assay [7] is Magnaporthe grisea (Pyricularia oryzae—PYRIOR). The assay is described as follows: microbe, parasite or virus in culture. The class given is cell-based. Conditions: Pyricularia oryzae, read-out: PYRIOR in vitro Growth Inhibition.
Assay [8] has as its system Stagonospora nodorum (Leptosphaeria nodorum—LEPTNO). Briefly: In vitro fungal growth inhibition, Stagonospora nodorum (LEPTNO). The class given is cell-based. The conditions noted are these: Leptosphaeria, read-out: LEPTNO in vitro Growth Inhibition.
Assay [9] concerns Leptosphaeria nodorum—LEPTNO. The assay is described as follows: Glume Blotch of Wheat, in vivo whole plant, 24 Hour Protectant. Conditions: for pest or weed control at 100 ppm: Leptosphaeria, read-out: LEPTNO in vivo 1 Day Protectant.
In assay [10] the test system is Mycosphaerella graminicola (Septoria tritici—SEPTTR). The assay is described as follows: In vitro fungal growth inhibition, Mycosphaerella graminicola (SEPTTR). In kind it is cell-based. The conditions noted are these: Zymoseptoria tritici, read-out: SEPTTR in vitro Growth Inhibition.
Assay [11] relates to Ustilago maydis (USTIMA). Briefly: microbe, parasite or virus in culture. In kind it is cell-based. Conditions: Mycosarcoma maydis, read-out: USTIMA in vitro Growth Inhibition.
The mark [12] stands for this setting: 100 ppm spray, wheat, 24 hour protectant, control of fungal infection vs untreated plants.
[13] abbreviates: 100 ppm spray, wheat, 24 hour protectant.
Setting [14] is: 100 ppm spray, 24 hour protectant, wheat, control of fungal infection vs untreated plants.
[15] abbreviates: 100 ppm spray, 24 hour protectant, wheat.
Setting [16] is: wheat plants sprayed at 100 ppm, inoculated after 24 hours, control of fungal infection vs untreated plants.
Where [17] appears, read: wheat plants sprayed at 100 ppm, inoculated after 24 hours.
The mark [18] stands for this setting: 100 ppm spray, wheat, 24 hour protectant, % control of fungal infection vs untreated plants.

Read-outs that look alike come from different tables or passages of the source. Where only a bound is given, the exact number is not on record here.

For the compound `COc1ccnc(C(=O)N[C@@H]2[C@@H](O)[C@H](O)[C@@H](CO)O[C@@H]2O)c1O` [Compound 334, N-(3-HYDROXY-4-METHOXY-2-PYRIDYLCARBONYL)-2-AMINO-2-DEOXY-alpha-D-GLUCOPYRANOSE], the inhibition at 25 ppm in assay [1], in assay [6], in assay [7], in assay [8] (25 ppm in growth medium), in assay [10] (25 ppm in growth medium) and in assay [11] was less than 80% in each case. Also, the pest or weed control at 100 ppm was less than 25% in [2] (setting [12]); less than 25% in [3]; less than 25% in [4] (setting [13]); less than 25% in [5] (setting [12]); 25 to 74% in assay [9] (setting [12]).

As to `COc1ccnc(C(=O)NC2C3CSC2CN(Cc2ccccc2)C3)c1O` (stereo not drawn) [Compound 325], the inhibition at 25 ppm in [1], in [6], in assay [7], in assay [8] (25 ppm in growth medium), in assay [10] (25 ppm in growth medium) and in assay [11] was less than 80% each time. Besides, the pest or weed control at 100 ppm in assay [2] (setting [14]) is less than 25%; in assay [3], less than 25%; in assay [4] (setting [15]), less than 25%; in assay [5] (setting [14]) it was less than 25%; in assay [9] (setting [14]) it was 25 to 74%.

In the case of `COc1ccnc(C(=O)NC2COC3(CC(C)(C)CC(C)(C)C3)OC2)c1O` [Compound 315], the inhibition at 25 ppm in assay [1], in assay [6], in [7], in [8] (25 ppm in growth medium), in assay [10] (25 ppm in growth medium) and in assay [11] was less than 80% in each case. Further, the pest or weed control at 100 ppm in [2] (setting [14]) was less than 25%; in [3] it was less than 25%; in [4] (setting [15]), less than 25%; in assay [5] (setting [14]), less than 25%; in assay [9] (setting [14]) it was 25 to 74%.

Turning to `COc1ccnc(C(=O)NCC#CCCl)c1O` [Compound 239], the inhibition at 25 ppm in assay [1], in [6], in assay [7], in assay [8] (25 ppm in growth medium), in assay [10] (25 ppm in growth medium) and in assay [11] was less than 80% in each case. Besides, the pest or weed control at 100 ppm in assay [2] (setting [14]) was less than 25%; in assay [3], less than 25%; in assay [4] (setting [15]), 25 to 74%; in [5] (setting [14]), 25 to 74%; in assay [9] (setting [14]) it was 25 to 74%.

For the compound `COc1ccnc(C(=O)Nc2ccc(OCc3cccc(C(F)(F)F)c3)cc2)c1O` [Compound 447], the inhibition at 25 ppm in assay [1], in assay [6], in [7], in assay [8] (25 ppm in growth medium), in assay [10] (25 ppm in growth medium) and in assay [11] was less than 80% throughout. In addition, the pest or weed control at 100 ppm in assay [2] (setting [12]) is less than 25%; in assay [3], less than 25%; in assay [4] (setting [13]) it was less than 25%; in [5] (setting [12]), less than 25%; in assay [9] (setting [12]), 25 to 74%.

Consider `COc1ccnc(C(=O)NC2CCCC(Sc3ccc(C(F)(F)F)cn3)C2)c1O` (stereo not drawn) [Compound 274], for which the inhibition – broadly, the relative decrease from the control value, in per cent – at 25 ppm in [1] was more than 80%; in assay [6], more than 80%; in assay [7], more than 80%; in [8] (25 ppm in growth medium), more than 80%; in [10] (25 ppm in growth medium) it was more than 80%; in assay [11] it was less than 80%. Moreover, the figures for the pest or weed control at 100 ppm in assay [2] (setting [14]), in assay [3] and in assay [4] (setting [15]) were less than 25%, less than 25% and 25 to 74%, respectively. In addition, in [5] (setting [14]), the “PUCCRT in vivo 1 Day Protectant” value is given as “+ +”. In addition, in [9] (setting [14]), the “LEPTNO in vivo 1 Day Protectant” value is given as “+ +”.

`O=C(NCc1sccc1Cl)c1nc(Br)ccc1O` [Compound 484]: the inhibition at 25 ppm in assay [1], in assay [6], in [7], in assay [8] (25 ppm in the growth medium), in [10] (25 ppm in the growth medium) and in assay [11] was less than 80% in each case. Further, the pest or weed control at 100 ppm in [2] (setting [16]), in assay [3], in assay [4] (setting [17]), in assay [5] (setting [16]) and in assay [9] (setting [16]) was less than 25% throughout.

`COc1ccnc(C(=O)NC2CCCC2=O)c1O` (stereo not drawn) [Compound 249]: the inhibition at 25 ppm in assay [1], in assay [6], in [7], in [8] (25 ppm in growth medium), in assay [10] (25 ppm in growth medium) and in assay [11] was less than 80% throughout. Besides, the pest or weed control at 100 ppm in assay [2] (setting [14]) was less than 25%; in assay [3] it was less than 25%; in [4] (setting [15]), 25 to 74%; in assay [5] (setting [14]), less than 25%; in assay [9] (setting [14]), 25 to 74%.

On to `COc1ccnc(C(=O)Nc2cccc(Oc3ccc(C(F)(F)F)cc3)c2)c1O` [Compound 423], for which the inhibition at 25 ppm in assay [1] was less than 80%; in assay [6], less than 80%; in assay [7], more than 80%; in assay [8] (25 ppm in growth medium), less than 80%; in assay [10] (25 ppm in growth medium), less than 80%; in [11], less than 80%. Besides, the pest or weed control at 100 ppm in assay [2] (setting [12]) was less than 25%; in assay [3], less than 25%; in assay [4] (setting [13]), 25 to 74%; in [5] (setting [12]), 25 to 74%; in [9] (setting [12]) it was 25 to 74%.

Turning to `O=C(Nc1ccc(Oc2cccc(C(F)(F)F)c2)cc1)c1nc(Br)ccc1O` [Compound 498], the inhibition at 25 ppm in assay [1], in [6], in assay [7], in [8] (25 ppm in the growth medium), in assay [10] (25 ppm in the growth medium) and in [11] was less than 80% each time. Moreover, the pest or weed control at 100 ppm is less than 25% in assay [2] (setting [16]); less than 25% in assay [3]; 25 to 74% in assay [4] (setting [17]); 25 to 74% in [5] (setting [16]); less than 25% in assay [9] (setting [16]).

`COc1ccc(Oc2cccc(NC(=O)c3nccc(OC)c3O)c2)cc1` [Compound 432]: the inhibition at 25 ppm in [1] was less than 80%; in assay [6] it was less than 80%; in [7], less than 80%; in [8] (25 ppm in growth medium) it was more than 80%; in [10] (25 ppm in growth medium) it was more than 80%; in assay [11] it was less than 80%. Besides, the pest or weed control at 100 ppm is less than 25% in assay [2] (setting [12]); less than 25% in assay [3]; less than 25% in assay [4] (setting [13]); 25 to 74% in assay [5] (setting [12]); 25 to 74% in [9] (setting [12]).

Consider `COc1ccnc(C(=O)Nc2cccc(Sc3ccc(C(F)(F)F)cc3)c2)c1OC(C)=O` [Compound 710], for which the inhibition at 25 ppm in assay [1] is less than 80%; in assay [6], less than 80%; in [7], more than 80%; in assay [8] (25 ppm in growth medium), more than 80%; in [10] (25 ppm in growth medium) it was more than 80%; in assay [11], less than 80%. The pest or weed control at 100 ppm in assay [2] (setting [18]) and in assay [3] was less than 25% throughout. Besides, the “SEPTTR in vivo 1 Day Protectant” value in assay [4] (setting [18]) is recorded as “+ +”. Moreover, the “PUCCRT in vivo 1 Day Protectant” value in assay [5] (setting [18]) was “+ +”. Besides, the “LEPTNO in vivo 1 Day Protectant” value in assay [9] (setting [18]) was “+ +”.
